Reference: ChEMBL document CHEMBL1156829 (Proc Natl Acad Sci U S A, 2008)
Where “and” joins values, the source holds several entries; their conditions need not be identical. Equal values may be shown once.

Assays:
Plasmodium falciparum [1] = experiment: NOVARTIS: Inhibition of Plasmodium falciparum W2 (drug-resistant) proliferation in erythrocyte-based infection assay; assay type: functional, organism-based; conditions: read-out: EC50
Plasmodium falciparum [2] = experiment: NOVARTIS: Inhibition of Plasmodium falciparum 3D7 (drug-susceptible) proliferation in erythrocyte-based infection assay; assay type: functional, organism-based
[3] = NOVARTIS: Cytotoxicity against human hepatocellular carcinoma cell line (Huh7); assay type: toxicity, cell-based, Huh-7; conditions: Huh7 cells (hepatocellular carcinoma cell line)

| SMILES | EC50 (Plasmodium falciparum [1]; Plasmodium falciparum, W2) | EC50 (Plasmodium falciparum [2]; Plasmodium falciparum, 3D7) | CC50 [3] | EC50 (Plasmodium falciparum [1]) | EC50 (Plasmodium falciparum [2]) |
| --- | --- | --- | --- | --- | --- |
| C=C[C@H]1C[N@]2CC[C@H]1C[C@H]2[C@H](O)c1ccnc2ccc(OC)cc12 | 793 nM | 518 nM |  |  |  |
| CN[C@@H]1CC2O[C@@](C)([C@@H]1OC)n1c3ccccc3c3c4c(c5c6ccccc6n2c5c31)C(=O)NC4 |  |  | 0.355 µM |  |  |
| CCc1nc(N)nc(N)c1-c1ccccc1 | > 1250 nM | 1550 nM |  |  |  |
| CN(C)c1ccc(/C=C2/SC(=Nc3ccccc3Cl)NC2=O)cc1 |  | > 1250 nM |  | > 512 nM and 1410 nM | 713 nM |
| Cc1ccc(Nc2nc(-c3ccccn3)cs2)cc1 | 368 nM | 407 nM |  |  |  |
| COc1cccc(NC(=O)C2C3C=CC4(O3)C2C(=O)N(CC2COc3ccccc3O2)C4C(=O)NC2CCCCC2)c1 (stereo not given) | > 53.7 nM | > 1250 nM |  |  |  |
| CCOC(=O)CC(C)(O)P(=O)(OC)OC (stereo not given) | > 1250 nM | > 1010 nM |  |  |  |
| CCCCNc1nc(NC(C)(C)C)nc(NC(C)(C)C)n1 | 804 nM | 2160 nM |  |  |  |
| CNc1nc(NN=Cc2cc([N+](=O)[O-])ccc2O)nc(Nc2cccc(C(F)(F)F)c2)n1 | > 1660 nM | 1860 nM |  |  |  |
| CN(C=Cc1sc2ccc3ccccc3c2[n+]1C)c1ccccc1 |  |  |  | 909 nM | 553 nM |
| O=[N+]([O-])c1ccc(C2OC3C(c4ccc(Cl)cc4)=Nc4ccccc4N3C2c2ccc([N+](=O)[O-])cc2)cc1 (stereo not given) | 709 nM | > 1250 nM |  |  |  |
| O=C(CCCn1c2ccccc2c(=O)c2ccccc21)NCc1ccc(F)cc1 | 1100 nM | 1110 nM |  |  |  |
| COc1ccc(C2C(C(=O)c3ccc(C)cc3)=C(O)C(=O)N2CCN2CCOCC2)c(OC)c1 (stereo not given) | > 1250 nM | > 50 nM |  |  |  |
| Cc1c(Br)c([N+](=O)[O-])nn1CC(=O)NC(C)c1ccccc1 (stereo not given) | > 948 nM | > 1250 nM |  |  |  |
| CCC(C)NC(=O)c1nn(-c2ccc(Cl)cc2)c(=O)c2ccccc12 (stereo not given) | 696 nM | 285 nM |  |  |  |
| Cc1cc2cc3c(cc2c(C)n1)c1ccccc1n3C | 1100 nM | 1260 nM |  |  |  |
| CN(C)c1ccc(/C=C2\SC(=N)N(c3nccs3)C2=O)cc1 | 307 nM | 223 nM |  |  |  |
| CC(=O)N1CCc2cc(Br)cc(S(=O)(=O)N(CC(C)C)CC(C)C)c21 | 270 nM | 1220 nM |  |  |  |
| CCN1C=Cc2ccccc2/C1=C\c1ccc2ccccc2[n+]1CC | 294 nM | 670 nM |  |  |  |
| CCCCN(CCCC)c1nc(=O)cc(-c2ccc(Cl)cc2)o1 | 636 nM | 810 nM |  |  |  |
| CCCCOc1ccc(/C=C(/C#N)c2nc(-c3ccc(-c4ccccc4)cc3)cs2)cc1 | > 774 nM | > 1250 nM |  |  |  |
| Oc1ccccc1CNC(Cc1ccccc1)C(O)(c1ccccc1)c1ccccc1 (stereo not given) | 27.6 nM | 203 nM |  |  |  |
| O=C(Cn1ccc(=NCc2ccccc2)cc1)c1cccc(Br)c1 | > 110 nM | > 1390 nM |  |  |  |

| SMILES | EC50 (Plasmodium falciparum [1]; Plasmodium falciparum, W2) | EC50 (Plasmodium falciparum [2]; Plasmodium falciparum, 3D7) | CC50 [3] | EC50 (Plasmodium falciparum [1]) | EC50 (Plasmodium falciparum [2]) |
| --- | --- | --- | --- | --- | --- |
| CCCOC(=O)c1c(NC(=O)c2c(I)cnn2C)sc2c1CCCCC2 | > 1250 nM | 1240 nM |  |  |  |
| CC(C)CC[n+]1ccccc1C=Cc1ccc(N(C)C)cc1 |  |  |  | 548 nM | 747 nM |
| O=C(NC(=S)Nc1ccc(-c2nc3ccccc3s2)cc1)c1ccc(S(=O)(=O)N2CCCC2)cc1 | > 1590 nM | 2050 nM |  |  |  |
| O=C1/C(=C/c2ccccc2)SC(=Nc2ccccc2)N1C1CCCCC1 | > 1250 nM | 1200 nM |  |  |  |
| CCC(=O)Nc1ccc(C(=O)NN=Cc2cc([N+](=O)[O-])ccc2O)cc1 | 1540 nM | > 1250 nM |  |  |  |
| CC12C(=O)N(c3cccc(C(=O)O)c3)C(=O)C1C1c3ccccc3C2c2ccccc21 (stereo not given) | > 1250 nM | > 652 nM |  |  |  |
| COc1ccc(/C=C2\SC(=S)N(CC(=O)NNC(=O)c3ccncc3)C2=O)cc1 | 2280 nM | > 1520 nM |  |  |  |
| CCN1/C(=C/c2sc3ccc(-c4ccccc4)cc3[n+]2CCO)C=Cc2cc(OC)ccc21 | 945 nM | 487 nM |  |  |  |
| CC[n+]1ccc(C=Cc2ccc(N(C)C)cc2)cc1 |  | 681 nM |  | 724 nM |  |
| N#Cc1c2c(c(N3CCN(C(c4ccccc4)c4ccccc4)CC3)n3c1nc1ccccc13)CCC2 | 2270 nM | > 1250 nM |  |  |  |
| O=C(/C=C/c1ccccc1)Nc1ccc(C(=O)OC[C@@H]2CCCN3CCCC[C@H]23)cc1 | > 1250 nM | 1440 nM |  |  |  |
| Cc1ccc(N=C(Nc2ccc(C)cc2)Nc2ccccc2O)cc1 | 231 nM | 1530 nM |  |  |  |
| COc1ccc(-c2csc(NC(=O)COc3ccccc3Cl)n2)cc1Br | 286 nM | 1640 nM |  |  |  |
| COc1ccc(-c2cc(C(F)(F)F)n3ncc(C(=O)NCc4ccccc4)c3n2)cc1 | 1540 nM | > 1250 nM |  |  |  |
| CC[n+]1cc(C)ccc1C=Cc1ccc(N(C)C)cc1 | 386 nM |  |  |  | 521 nM |
| CCOC(=O)c1c(-c2ccc3c(c2)OCO3)[nH]c2cc(OC)ccc2c1=O | 180 nM | 127 nM |  |  |  |
| CCCCOc1cccc(NC(=O)CSC2=C(C#N)C(c3ccccc3)C(C(=O)Nc3ccccc3)=C(C)N2)c1 (stereo not given) | 479 nM | 507 nM |  |  |  |
| C=CC1CN2CCC1CC2[C@@H](OC(=O)c1cc([N+](=O)[O-])cc([N+](=O)[O-])c1)c1ccnc2ccc(OC)cc12 (stereo not given in full) | 1610 nM | 1300 nM |  |  |  |
| O=C(Nc1cccc(-c2csc(-c3ccccc3)n2)c1)c1cccs1 | 672 nM | 1240 nM |  |  |  |
| Cc1ccnc(Nc2nc(-c3ccccn3)cs2)c1 | 46.3 nM | 113 nM |  |  |  |
| CN1/C(=C/C=C/c2oc3ccccc3[n+]2C)Oc2ccccc21 |  | 161 nM |  |  | 182 nM |
| Cc1ccc(C=Cc2ccc(N(C)C)cc2)[n+](C)c1 |  |  |  | 914 nM | 1160 nM |
| COc1cc2c(cc1OC)C1=NNC(=O)C1=NC(C)(C)C2 | 793 nM | > 1580 nM |  |  |  |

| SMILES | EC50 (Plasmodium falciparum [1]; Plasmodium falciparum, W2) | EC50 (Plasmodium falciparum [2]; Plasmodium falciparum, 3D7) | CC50 [3] | EC50 (Plasmodium falciparum [1]) | EC50 (Plasmodium falciparum [2]) |
| --- | --- | --- | --- | --- | --- |
| CCOC(=O)C1=C(C)NC(=Cc2cc(C)n(-c3ccccc3C(F)(F)F)c2C)C1=O | 11.7 nM | 13.8 nM |  |  |  |
| CN1/C(=C\C=C\C2=[N+](C)c3ccc4ccccc4c3C2(C)C)C(C)(C)c2ccccc21 | 1020 nM | 1640 nM |  |  |  |
| O=C1C(N2CCCCC2)=C(N2CCOCC2)C(=O)c2ccccc21 | > 1460 nM | 1240 nM |  |  |  |
| CCN1/C(=C\c2sc3ccc(O)cc3[n+]2CC)C=Cc2ccccc21 | 701 nM | 582 nM |  |  |  |
| Oc1ccc(C(CCNCCc2c[nH]c3ccccc23)c2ccccc2)cc1 (stereo not given) | 474 nM | > 997 nM |  |  |  |
| CCOC(=O)C1=C(C)N/C(=C/c2cc(C)n(-c3ccccc3C(F)(F)F)c2C)C1=O | 628 nM | 471 nM |  |  |  |
| CC(C)CN1C(=O)c2ccccc2C(C(=O)NC2CCCCC2)C1c1cccs1 (stereo not given) |  |  | > 100 µM |  |  |
| COc1ccc2ccccc2c1C1NC(SCc2ccc(F)cc2)=NC(C)=C1C(C)=O (stereo not given) | 702 nM | > 1610 nM |  |  |  |
| O=C1CCC(=O)N1c1ccc(CSc2nc3ccccc3[nH]2)cc1 | > 1250 nM | > 281 nM |  |  |  |
| CCCOc1ccc(C(=O)C2=C(O)C(=O)N(CCN3CCOCC3)C2c2ccc(F)cc2)c(C)c1 (stereo not given) | > 896 nM | > 1250 nM |  |  |  |
| CN(C)c1ccc(/C=C2\N=C(c3ccccc3F)OC2=O)cc1 | > 1210 nM | > 1250 nM |  |  |  |
| Cc1ccc(NC(=O)c2cc3ccccc3oc2=O)nc1 | > 1250 nM | > 1080 nM |  |  |  |
| Cc1cccc(NC(c2cccc(F)c2)c2ccc3cccnc3c2O)n1 (stereo not given) | 880 nM | 1710 nM |  |  |  |
| COc1ccc(-c2nc(-c3ccc(-c4[nH]c(-c5ccc(OC)cc5)nc4-c4ccccc4)cc3)c(-c3ccccc3)[nH]2)cc1 | > 1250 nM | 1290 nM |  |  |  |
| COc1cnc(-c2ccccn2)nc1N1CCCC1 | 648 nM | 489 nM |  |  |  |
| COc1cc(C=NNc2nc3ccccc3[nH]2)cc(Br)c1O | > 1250 nM | 1420 nM |  |  |  |
| CC1=NN(c2ccccc2)C(=O)C1=NNc1c(Br)cc(Br)cc1Br | > 1050 nM | > 1250 nM |  |  |  |
| CCOC(=O)c1c(-c2ccc3c(c2)OCO3)[nH]c2cccc(OC)c2c1=O |  |  | > 10 µM |  |  |
| N#CCSc1nc2c(sc(=S)n2-c2ccccc2)c(=O)n1Cc1ccco1 | 715 nM | > 1350 nM |  |  |  |
| COc1ccc(OC)c(C=NNC(=O)Cc2cc(O)n[nH]2)c1 | 1940 nM | > 1250 nM |  |  |  |
| CCN(CC)c1ccc(/C=C/c2ccc3ccc(OC)cc3[n+]2CC)cc1 |  |  |  |  | 38.4 nM and 248 nM |
| Cc1ccc(NC(=O)C2C3C=CC4(O3)C2C(=O)N(CCCN2CCOCC2)C4C(=O)NC2CCCC(C)C2C)cc1Cl (stereo not given) | > 117 nM | > 1630 nM |  |  |  |
| CC1(C)Cc2nc3ccccc3c(NCc3ccc(Cl)cc3)c2C(O)C1 (stereo not given) | 2110 nM | > 1250 nM |  |  |  |
